According to PubChem BioAssay AID1919009 (Molecular Pharmacology Branch, DTP, NCI, 2023):
pIC50: −log10 of the molar value.

Test system: K24384-001-R-PDC complex spheroid growth
Test: Anticancer human tumor K24384-001-R-PDC patient-derived pancreatic adenocarcinoma cell line growth inhibition [AhR]
Details: for pIC50: curve of first compound; for viability, T/C: stronger effect = lower value
Source text: Multicellular complex tumor spheroid response to aryl hydrocarbon receptor antagonists in combination with a variety of drugs and investigational agents in selected tumor cell lines
The current study was undertaken to assess response to aryl hydrocarbon receptor antagonists in combination with standard-of-care drugs and investigational agents in solid tumor complex spheroid models. Complex spheroids include a stromal component modeled by human endothelial cells (HUVEC) and fibroblasts modeled by human mesenchymal stem cells (MSCs). The concentration ranges selected for each drug and investigational agent were based upon clinically achievable concentrations if the clinical Cmax of the agent was known.
Compounds. The drugs and investigational agents: BAY 2416964 (NSC825713), GNF351 (NSC835774), CH-223191 (NSC835775), CPI-455 (NSC825282), aza-TdCyd (NSC777586), decitabine (NSC127716), belinostat (NSC758774), entinostat (NSC756642), pevonedistat (NSC761192), tazemetostat (NSC777109), talazoparib (NSC765396), olaparib (NSC753686), selinexor (NSC780203), nedisertib (M3814, NSC802822), bortezomib (NSC756655), venetoclax (NSC766270), doxorubicin (NSC123127), elimusertib (BAY189344, NSC800525), ceralasertib (AZD6738, NSC777638), TAK-243 (NSC785004), alisertib (NSC759677), etoposide (NSC141540), topotecan (NSC609699), eribulin (NSC707389), gemcitabine (NSC613327), carboplatin (NSC241240), cisplatin (NSC119875), and SN-38 (NSC673596) were obtained from the National Cancer Institute (NCI) Developmental Therapeutics Program Chemical Repository (32). The FDA-approved anticancer drug set is available from the Developmental Therapeutics Program at https://dtp.cancer.gov/organization/dscb/obtaining/available plates.htm. […] The stock solutions were prepared in dimethyl sulfoxide (DMSO, Sigma-Aldrich, St. Louis, MO, cat. D2650), except for the platinum compounds which were prepared in saline (Quality Biological, Gaithersburg, MD, cat. 114-055-101), at 800-fold the tested concentration and stored at -70 degrees C prior to their use. All drugs and investigational agents were tested over a range starting from a high concentration at or near the clinical Cmax and decreasing in half-log increments. If the clinical Cmax for an agent had not been determined, the highest concentration tested was 10 microM (Table 1).
Cell Culture. All cells were maintained in an incubator at 37 degrees C and 5% CO2 with 95% humidity. The PDC lines were cultured according to standard operating procedures established by the NCI PDMR (https://pdmr.cancer.gov). Briefly, all PDCs were thawed and cultured in Matrigel-coated flasks prepared with a working solution of 1X Ham's F-12 nutrient mix, without supplementation (Invitrogen, Waltham, MA, cat. 11765054), 100 U/mL penicillin-streptomycin (Invitrogen, cat. 15140122), and 2.5% Matrigel (Corning Inc., Corning, NY, cat. 354248) for the first three passages. All PDCs were cultured in complete DMEM/F-12 media containing advanced DMEM/F-12 (Invitrogen, cat. 12634028), 4.9% defined fetal bovine serum, heat inactivated (HyClone Laboratories Inc., Logan, UT, cat. SH30070.03HI), 389 ng/mL hydrocortisone (Sigma-Aldrich, cat. H4001), 9.7 ng/mL human EGF recombinant protein (Invitrogen, cat. PHG0313), 23.4 microg/mL adenine (Sigma-Aldrich, cat. A2786), 97.3 U/mL penicillin-streptomycin (Invitrogen, cat. 15140122), 1.9 mM L-glutamine (Invitrogen, cat. 25030081), and 9.7 microM Y-27632 dihydrochloride (Tocris Bioscience, Bristol, United Kingdom, cat. 1254). The PDCs were cultured in complete DMEM/F12 media without 10 microM Y-27632 dihydrochloride for at least two passages prior to the screen. The established cell lines NCI-H1341 and […] were cultured in DMEM/F-12, HEPES (Invitrogen, cat. 11330032), 5% defined fetal bovine serum (HyClone Laboratories Inc., cat. SH30070.03), ITS premix universal culture supplement [insulin (5 microg/mL), transferrin (5 microg/mL), and selenious acid (5 ng/mL)] […]

[1] = second compound 0.1 µM, first compound 0.0316 µM
[2] = second compound 0.1 µM, first compound 0.1 µM
[3] = second compound 0.1 µM, first compound 0.316 µM
[4] = second compound 0.1 µM, first compound 1 µM
[5] = second compound 0.1 µM, first compound 3.16 µM
[6] = second compound 0.1 µM, first compound 10 µM
[7] = second compound 0.316 µM, first compound 0.0316 µM
[8] = second compound 0.316 µM, first compound 0.1 µM
[9] = second compound 0.316 µM, first compound 0.316 µM
[10] = second compound 0.316 µM, first compound 1 µM
[11] = second compound 0.316 µM, first compound 3.16 µM
[12] = second compound 0.316 µM, first compound 10 µM
[13] = second compound 1 µM, first compound 0.0316 µM
[14] = second compound 1 µM, first compound 0.1 µM
[15] = second compound 1 µM, first compound 0.316 µM
[16] = second compound 1 µM, first compound 1 µM
[17] = second compound 1 µM, first compound 3.16 µM
[18] = second compound 1 µM, first compound 10 µM
[19] = second compound 3.16 µM, first compound 0.0316 µM
[20] = second compound 3.16 µM, first compound 0.1 µM
[21] = second compound 3.16 µM, first compound 0.316 µM
[22] = second compound 3.16 µM, first compound 1 µM
[23] = second compound 3.16 µM, first compound 3.16 µM
[24] = second compound 3.16 µM, first compound 10 µM
[25] = second compound 10 µM, first compound 0.0316 µM
[26] = second compound 10 µM, first compound 0.1 µM
[27] = second compound 10 µM, first compound 0.316 µM
[28] = second compound 10 µM, first compound 1 µM
[29] = second compound 10 µM, first compound 3.16 µM
[30] = second compound 10 µM, first compound 10 µM
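Throughout, for viability, T/C: percent of DMSO vehicle-treated spheroid viability set as 100%.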

Row | SMILES | pIC50 (second compound 0.1 µM) | pIC50 (second compound 0.316 µM) | pIC50 (second compound 1 µM) | pIC50 (second compound 3.16 µM) | pIC50 (second compound 10 µM) | viability, T/C [1] [%] | viability, T/C [2] [%] | viability, T/C [3] [%] | viability, T/C [4] [%] | viability, T/C [5] [%] | viability, T/C [6] [%] | viability, T/C [7] [%] | viability, T/C [8] [%] | viability, T/C [9] [%] | viability, T/C [10] [%] | viability, T/C [11] [%] | viability, T/C [12] [%] | viability, T/C [13] [%] | viability, T/C [14] [%] | viability, T/C [15] [%] | other results
1 | Nc1ccn(C2OC(CO)C(O)C2(F)F)c(=O)n1 (stereo not given) + Cc1ccccc1N=Nc1ccc(NC(=O)c2ccnn2C)c(C)c1 | 6.96 | 6.77 | 6.79 | 6.74 | 6.31 | 67.6 | 51.8 | 35.9 | 29.9 | 22.9 | 20.6 | 61.8 | 53.7 | 44.5 | 28 | 19.2 | 19.7 | 67.6 | 57.4 | 40.6 | viability, T/C [16]: 25.8%; viability, T/C [17]: 21.2%; viability, T/C [18]: 15.1%; viability, T/C [19]: 58%; viability, T/C [20]: 60.4%; viability, T/C [21]: 41.9%; viability, T/C [22]: 25.9%; viability, T/C [23]: 20.5%; viability, T/C [24]: 17.1%; viability, T/C [25]: 69.3%; viability, T/C [26]: 63.2%; viability, T/C [27]: 60%; viability, T/C [28]: 35.3%; viability, T/C [29]: 28.7%; viability, T/C [30]: 20.1%
2 | COc1cc(C2c3cc4c(cc3C(OC3OC5COC(C)OC5C(O)C3O)C3COC(=O)C23)OCO4)cc(OC)c1O (stereo not given) + Cc1cncc(-c2nc(NCCc3c[nH]c4ccccc34)c3ncn(C(C)C)c3n2)c1 | 6.25 | 6.14 | 5.78 | 6.09 | > 7.50 | 88.4 | 109 | 62.5 | 41.3 | 40 | 31.1 | 101 | 107 | 68.1 | 47.2 | 35.4 | 33.8 | 101 | 90.2 | 81.3 | viability, T/C [16]: 54.8%; viability, T/C [17]: 42.1%; viability, T/C [18]: 35.2%; viability, T/C [19]: 105%; viability, T/C [20]: 81.8%; viability, T/C [21]: 86.4%; viability, T/C [22]: 41.2%; viability, T/C [23]: 37.1%; viability, T/C [24]: 30.2%; viability, T/C [25]: 13.1%; viability, T/C [26]: 15.2%; viability, T/C [27]: 13.7%; viability, T/C [28]: 5.82%; viability, T/C [29]: 6.89%; viability, T/C [30]: 5.29%
